From patent US11655235B2, “Pyrrolidine and piperidine compounds” (YUHAN CORPORATION, priority 2019, dated 2023)

How the values were obtained:
Format in all cases: biochemical
DPP4 = DPP4 (Homo sapiens, UniProt P27487); assay: DPP4 inhibition, fluorogenic substrate H-Gly-Pro-AMC; set-up: purchased R&D Systems; details: recombinant human DPP4
Recombinant human FAP = target: T1, Recombinant human FAP (Homo sapiens, UniProt Q12884); assay: FAP FRET assay, FGF21-sequence FRET peptide substrate; details: FRET peptide with human FGF21 sequence, 6 μM, 37° C.
T1 construct: purchased R&D systems
T1 sequence (Q12884 1-760): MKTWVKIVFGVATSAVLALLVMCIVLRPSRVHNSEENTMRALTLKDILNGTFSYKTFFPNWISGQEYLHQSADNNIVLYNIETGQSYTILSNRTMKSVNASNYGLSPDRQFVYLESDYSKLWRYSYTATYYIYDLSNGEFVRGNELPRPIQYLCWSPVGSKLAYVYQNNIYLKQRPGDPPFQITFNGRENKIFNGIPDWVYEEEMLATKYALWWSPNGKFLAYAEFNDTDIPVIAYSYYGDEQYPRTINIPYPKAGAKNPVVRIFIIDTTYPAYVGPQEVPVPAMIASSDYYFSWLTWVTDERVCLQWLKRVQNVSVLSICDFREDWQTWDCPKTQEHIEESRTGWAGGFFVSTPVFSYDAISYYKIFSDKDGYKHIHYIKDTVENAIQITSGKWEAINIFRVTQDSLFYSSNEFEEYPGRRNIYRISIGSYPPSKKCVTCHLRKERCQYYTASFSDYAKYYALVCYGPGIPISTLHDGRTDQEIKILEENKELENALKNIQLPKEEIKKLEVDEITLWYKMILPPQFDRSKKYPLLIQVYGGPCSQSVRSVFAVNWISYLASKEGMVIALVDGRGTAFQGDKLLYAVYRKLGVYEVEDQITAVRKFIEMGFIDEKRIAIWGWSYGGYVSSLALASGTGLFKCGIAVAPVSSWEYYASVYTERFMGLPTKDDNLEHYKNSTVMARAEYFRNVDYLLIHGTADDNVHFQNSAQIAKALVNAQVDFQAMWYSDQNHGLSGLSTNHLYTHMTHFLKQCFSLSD
Method in brief: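 FRET peptide bearing human FGF21 sequence (6 μM final) cleaved by 10 ng recombinant human FAP at 37° C in HEPES pH 7.2 buffer with NaCl, BSA and EDTA, DMSO up to 0.1%. Signal-rate decrease versus uninhibited control fitted to a four-variable logistic model for IC50.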

recombinant human DPP7 = target: T2, recombinant human DPP7 (Homo sapiens, UniProt Q9UHL4); assay: DPP7 inhibition, fluorogenic substrate Lys-Pro-AMC; details: recombinant human DPP7
T2 construct: purchased R&D Systems
Experimental: The compounds according to the present technology were evaluated in terms of the inhibitory effect on the activity of dipeptidyl peptidases including FAP by using a substrate producing fluorescent substances upon enzymatic decomposition. The test was conducted at 25° C. to get a final reaction volume of 100 μL in a 96 black well plate. […] Briefly, the test compounds were dissolved in dimethyl sulfoxide (DMSO) at a concentration of 20 mM and then subjected to serial dilution, thereby creating an 8 point curve. As for the control group, a 6 point curve created by serial dilution of Talabostat in the same buffer solution was used. Fluorescence intensity was measured using a microplate reader (Flexstation3, Molecular Devices) under the wavelength condition exciting at 380 nm and reading the emission at 460 nm. The inhibitory effect of the test compounds was measured as a decrease (%) in the signal rate as compared to the control group without any inhibitor. Data was fixed to a logistic model with four variables and IC50 value was calculated using GraphPad Prism program. As for recombinant human DPP4 (R&D Systems), 25 mM tris (pH 8.0) buffer as a buffer solution and H-Gly-Pro-AMC (Bachem) as a substrate were used. As for recombinant human DPP7 (R&D Systems), 25 mM MES (pH 6.0) buffer as a buffer solution and Lys-Pro-AMC (Bachem) as a substrate were used. As for recombinant human DPP8 (PBS Bioscience), as a buffer solution, a 10 mM tris (pH 7.4) buffer comprising 10 mM of magnesium chloride and 0.05% of Tween 20, and Z-Ala-Pro-AMC (BPS Bioscience) as a substrate were used. As for recombinant human DPP9 (R&D Systems), a 25 mM tris (pH 8.0) buffer as a buffer solution and H-Gly-Pro-AMC (Bachem) as a substrate were used. As for recombinant human PREP (R&D System), as a buffer solution, a 25 mM tris (pH 7.5) buffer comprising 250 mM sodium chloride and 2.5 mM DTT (Dithiolthreitol), and Z-Gly-Pro-AMC (Bachem) as a substrate were used. The evaluation was made by using 10 ng of DPP4, PDD7, and PREP, 20 ng of DPP8, and 50 ng of DPP9 based on the final reaction. In the evaluation of DPP4, the test compounds were subjected to serial dilution in a buffer under the condition containing up to 0.1% of DMSO. In the evaluation of DPP7, DPP8, DPP9, and PREP, the test compounds were subjected to serial dilution in each buffer under the condition containing up to 0.5% of DMSO.

Chain of DPP4 (P27487 whole entry): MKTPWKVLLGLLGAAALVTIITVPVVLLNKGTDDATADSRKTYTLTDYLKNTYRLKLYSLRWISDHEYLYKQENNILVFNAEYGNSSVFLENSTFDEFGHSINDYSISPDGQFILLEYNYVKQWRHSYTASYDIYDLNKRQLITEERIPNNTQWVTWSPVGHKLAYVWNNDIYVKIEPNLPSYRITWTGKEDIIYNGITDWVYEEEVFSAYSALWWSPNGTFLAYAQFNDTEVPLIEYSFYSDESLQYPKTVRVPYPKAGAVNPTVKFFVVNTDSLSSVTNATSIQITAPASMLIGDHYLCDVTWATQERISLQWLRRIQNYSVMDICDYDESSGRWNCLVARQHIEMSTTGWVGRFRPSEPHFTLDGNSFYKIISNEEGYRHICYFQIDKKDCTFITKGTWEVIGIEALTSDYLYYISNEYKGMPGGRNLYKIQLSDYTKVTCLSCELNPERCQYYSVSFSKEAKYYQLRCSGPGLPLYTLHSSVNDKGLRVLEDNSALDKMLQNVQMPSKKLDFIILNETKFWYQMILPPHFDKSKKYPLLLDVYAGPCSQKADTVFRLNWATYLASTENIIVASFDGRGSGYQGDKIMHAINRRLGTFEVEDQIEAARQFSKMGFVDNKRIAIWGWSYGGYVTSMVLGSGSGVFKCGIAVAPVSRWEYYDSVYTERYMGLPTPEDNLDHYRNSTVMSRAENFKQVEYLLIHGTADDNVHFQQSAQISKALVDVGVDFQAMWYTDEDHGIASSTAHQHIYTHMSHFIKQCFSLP

N#C[C@@H]1C[C@H](F)CN1C(=O)CN1CC[C@@H](Nc2cnc3ncccc3c2)C1 [Example 171, (2S,4S)-4-fluoro-1-[2-[(3R)-3-(1,8-naphthyridin-3-ylamino)pyrrolidin-1-yl]acetyl]pyrrolidine-2-carbonitrile]
IC50 (DPP4): 2190 nM
IC50 (Recombinant human FAP): 8.2 nM
IC50 (recombinant human DPP7): 2790 nM

N#C[C@@H]1C[C@H](F)CN1C(=O)CN1CC[C@@H](Nc2ccc(F)c3ncccc23)C1 [Example 175, (2S,4S)-4-fluoro-1-[2-[(3R)-3-[(8-fluoro-5-quinolyl)amino]pyrrolidin-1-yl]acetyl]pyrrolidine-2-carbonitrile]
IC50 (DPP4): 1690 nM
IC50 (Recombinant human FAP): 3.5 nM
IC50 (recombinant human DPP7): 4240 nM

N#C[C@@H]1CCCN1C(=O)CN1CC[C@@H](Nc2cccc3ncc(F)cc23)C1 [Example 209, (2S)-1-[2-[(3R)-3-[(3-fluoro-5-quinolyl)amino]pyrrolidin-1-yl]acetyl]pyrrolidine-2-carbonitrile]
IC50 (DPP4): 4430 nM
IC50 (Recombinant human FAP): 1.7 nM
IC50 (recombinant human DPP7): 7010 nM

N#C[C@@H]1C[C@H](F)CN1C(=O)CN1CC[C@H](Nc2ccc(C(=O)Nc3ccccc3)c3ncccc23)C1 [Example 283, N-phenyl-5-[[(3S)-1-[2-oxo-2-[(2S,4S)-2-cyano-4-fluoro-pyrrolidin-1-yl]ethyl]pyrrolidin-3-yl]amino]quinoline-8-carboxamide]
IC50 (DPP4): 1210 nM
IC50 (Recombinant human FAP): 1 nM
IC50 (recombinant human DPP7): 74.3 nM

N#C[C@@H]1CCCN1C(=O)CN1CC[C@H](Nc2ccc(C(=O)Nc3ccccc3)c3ncccc23)C1 [Example 287, N-phenyl-5-[[(3S)-1-[2-oxo-2-[(2S)-2-cyanopyrrolidin-1-yl]ethyl]pyrrolidin-3-yl]amino]quinoline-8-carboxamide]
IC50 (DPP4): 7580 nM
IC50 (Recombinant human FAP): 1.2 nM
IC50 (recombinant human DPP7): 904 nM

N#C[C@@H]1C[C@H](F)CN1C(=O)CN1CC[C@H](Nc2ccc(C(=O)Nc3ccccn3)c3ncccc23)C1 [Example 294, N-(2-pyridyl)-5-[[(3S)-1-[2-oxo-2-[(2S,4S)-2-cyano-4-fluoro-pyrrolidin-1-yl]ethyl]pyrrolidin-3-yl]amino]quinoline-8-carboxamide]
IC50 (DPP4): 439 nM
IC50 (Recombinant human FAP): 0.6 nM
IC50 (recombinant human DPP7): 16.6 nM

N#C[C@@H]1C[C@H](F)CN1C(=O)CN1CCC(Nc2ccnc3c(Cl)cccc23)CC1 [Example 344, (2S,4S)-1-[2-[4-[(8-chloro-4-quinolyl)amino]-1-piperidyl]acetyl]-4-fluoro-pyrrolidine-2-carbonitrile]
IC50 (DPP4): ≥ 100000 nM
IC50 (Recombinant human FAP): 6 nM
IC50 (recombinant human DPP7): 4610 nM

CN(C(=O)c1ccc(NC2CCN(CC(=O)N3C[C@@H](F)C[C@H]3C#N)CC2)c2cccnc12)c1ccccc1 [Example 392, N-methyl-5-[[1-[2-oxo-2-[(2S,4S)-2-cyano-4-fluoro-pyrrolidin-1-yl]ethyl]-4-piperidyl]amino]-N-phenyl-quinoline-8-carboxamide]
IC50 (DPP4): 2070 nM
IC50 (Recombinant human FAP): 50.6 nM

CN(Cc1ccccc1)C(=O)c1ccc(NC2CCN(CC(=O)N3C[C@@H](F)C[C@H]3C#N)CC2)c2cccnc12 [Example 393, N-benzyl-N-methyl-5-[[1-[2-oxo-2-[(2S,4S)-2-cyano-4-fluoro-pyrrolidin-1-yl]ethyl]-4-piperidyl]amino]quinoline-8-carboxamide]
IC50 (DPP4): 3310 nM
IC50 (Recombinant human FAP): 43.8 nM

CNC(=O)c1ccc(NC2CCN(CC(=O)N3CCC[C@H]3C#N)CC2)c2cccnc12 [Example 395, N-methyl-5-[[1-[2-oxo-2-[(2S)-2-cyanopyrrolidin-1-yl]ethyl]-4-piperidyl]amino]quinoline-8-carboxamide]
IC50 (DPP4): 6040 nM
IC50 (Recombinant human FAP): 18.6 nM

CN(Cc1ccccc1)C(=O)c1ccc(NC2CCN(CC(=O)N3CCC[C@H]3C#N)CC2)c2cccnc12 [Example 397, N-benzyl-N-methyl-5-[[1-[2-oxo-2-[(2S)-2-cyanopyrrolidin-1-yl]ethyl]-4-piperidyl]amino]quinoline-8-carboxamide]
IC50 (DPP4): 28500 nM
IC50 (Recombinant human FAP): 38.9 nM

CN(C(=O)c1ccc(NC2CCN(CC(=O)N3CCC[C@H]3C#N)CC2)c2cccnc12)c1ccccc1 [Example 398, N-methyl-5-[[1-[2-oxo-2-[(2S)-2-cyanopyrrolidin-1-yl]ethyl]-4-piperidyl]amino]-N-phenyl-quinoline-8-carboxamide]
IC50 (DPP4): 14000 nM
IC50 (Recombinant human FAP): 98.6 nM

CC(=O)Nc1ccc(NC2CCN(CC(=O)N3CCC[C@H]3C#N)CC2)c2cccnc12 [Example 408, N-[5-[[1-[2-oxo-2-[(2S)-2-cyanopyrrolidin-1-yl]ethyl]-4-piperidyl]amino]-8-quinolyl]acetamide]
IC50 (DPP4): 8190 nM
IC50 (Recombinant human FAP): 12.8 nM

N#C[C@@H]1CCCN1C(=O)CN1CCC(Oc2ccnc3cc(Cl)ccc23)CC1 [Example 428, (2S)-1-[2-[4-[(7-chloro-4-quinolyl)oxy]-1-piperidyl]acetyl]pyrrolidine-2-carbonitrile]
IC50 (DPP4): 32600 nM
IC50 (Recombinant human FAP): 17.3 nM

N#C[C@@H]1CCCN1C(=O)CN1CCC(Oc2cccc3ncc(F)cc23)CC1 [Example 429, (2S)-1-[2-[4-[(3-fluoro-5-quinolyl)oxy]-1-piperidyl]acetyl]pyrrolidine-2-carbonitrile]
IC50 (DPP4): 37200 nM
IC50 (Recombinant human FAP): 6.9 nM
IC50 (recombinant human DPP7): 3970 nM

N#Cc1ccc2c(OC3CCN(CC(=O)N4CCC[C@H]4C#N)CC3)cccc2n1 [Example 430, 5-[[1-[2-oxo-2-[(2S)-2-cyanopyrrolidin-1-yl]ethyl]-4-piperidyl]oxy]quinoline-2-carbonitrile]
IC50 (DPP4): 29400 nM
IC50 (Recombinant human FAP): 24.5 nM

N#C[C@@H]1CCCN1C(=O)CN1CCC(Oc2ccc(Cl)c3ncccc23)CC1 [Example 431, (2S)-1-[2-[4-[(8-chloro-5-quinolyl)oxy]-1-piperidyl]acetyl]pyrrolidine-2-carbonitrile]
IC50 (DPP4): 19300 nM
IC50 (Recombinant human FAP): 12.2 nM
IC50 (recombinant human DPP7): 6340 nM

Cc1ccc2c(OC3CCN(CC(=O)N4C[C@@H](F)C[C@H]4C#N)CC3)ccnc2c1 [Example 432, (2S,4S)-4-fluoro-1-[2-[4-[(7-methyl-4-quinolyl)oxy]-1-piperidyl]acetyl]pyrrolidine-2-carbonitrile]
IC50 (DPP4): 6580 nM
IC50 (Recombinant human FAP): 19.8 nM

N#C[C@@H]1C[C@H](F)CN1C(=O)CN1CCC(Oc2ccnc3c(F)cccc23)CC1 [Example 435, (2S,4S)-4-fluoro-1-[2-[4-[(8-fluoro-4-quinolyl)oxy]-1-piperidyl]acetyl]pyrrolidine-2-carbonitrile]
IC50 (DPP4): 4830 nM
IC50 (Recombinant human FAP): 3.2 nM
IC50 (recombinant human DPP7): 6560 nM
